# Test results taken from ChEMBL document CHEMBL1201862, “PubChem BioAssay data set” (2004).
# Active and inactive are the calls of the source.
# Tests used:
# [1] = molecular target: T1, Replicative DNA helicase DnaB (Mycobacterium tuberculosis, UniProt P9WMR3); test: DnaB intein splicing inhibitors, dose response, biochemical, cell-free fluorescence (AID 449749); assay type: functional
# T1 sequence (P9WMR3 whole entry): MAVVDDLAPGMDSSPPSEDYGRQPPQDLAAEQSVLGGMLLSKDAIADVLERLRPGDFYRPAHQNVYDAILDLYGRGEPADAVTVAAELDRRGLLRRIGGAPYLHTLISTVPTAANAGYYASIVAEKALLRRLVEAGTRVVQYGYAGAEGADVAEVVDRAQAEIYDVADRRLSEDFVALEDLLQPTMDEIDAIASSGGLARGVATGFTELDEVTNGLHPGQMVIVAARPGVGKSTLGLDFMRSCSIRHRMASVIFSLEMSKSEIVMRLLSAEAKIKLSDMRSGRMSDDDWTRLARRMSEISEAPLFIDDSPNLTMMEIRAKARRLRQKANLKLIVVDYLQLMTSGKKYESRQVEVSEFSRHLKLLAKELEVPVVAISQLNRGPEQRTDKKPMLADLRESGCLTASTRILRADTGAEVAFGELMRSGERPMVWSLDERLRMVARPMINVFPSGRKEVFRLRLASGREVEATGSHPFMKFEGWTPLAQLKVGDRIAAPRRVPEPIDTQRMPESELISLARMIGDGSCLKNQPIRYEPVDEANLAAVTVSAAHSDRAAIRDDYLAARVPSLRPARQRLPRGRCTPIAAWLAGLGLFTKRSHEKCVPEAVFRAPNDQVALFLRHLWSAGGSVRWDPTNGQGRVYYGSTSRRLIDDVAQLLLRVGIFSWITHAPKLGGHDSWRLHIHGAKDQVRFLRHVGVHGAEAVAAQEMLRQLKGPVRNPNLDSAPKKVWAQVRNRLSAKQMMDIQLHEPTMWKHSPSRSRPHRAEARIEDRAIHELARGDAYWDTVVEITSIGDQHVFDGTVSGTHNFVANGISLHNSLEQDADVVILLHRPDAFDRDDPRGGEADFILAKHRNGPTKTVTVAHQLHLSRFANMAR
# Protein RecA = molecular target: T2, Protein RecA (Mycobacterium tuberculosis, UniProt P9WHJ3); test: Fluorescence Cell-Free Homogeneous Dose Retest to Identify Inhibitors of RecA-Intein Splicing Activity. [Related pubchem assays (depositor defined):AID2097, AID2223, AID489010, AID492950]; assay type: functional
# T2 sequence (P9WHJ3 whole entry): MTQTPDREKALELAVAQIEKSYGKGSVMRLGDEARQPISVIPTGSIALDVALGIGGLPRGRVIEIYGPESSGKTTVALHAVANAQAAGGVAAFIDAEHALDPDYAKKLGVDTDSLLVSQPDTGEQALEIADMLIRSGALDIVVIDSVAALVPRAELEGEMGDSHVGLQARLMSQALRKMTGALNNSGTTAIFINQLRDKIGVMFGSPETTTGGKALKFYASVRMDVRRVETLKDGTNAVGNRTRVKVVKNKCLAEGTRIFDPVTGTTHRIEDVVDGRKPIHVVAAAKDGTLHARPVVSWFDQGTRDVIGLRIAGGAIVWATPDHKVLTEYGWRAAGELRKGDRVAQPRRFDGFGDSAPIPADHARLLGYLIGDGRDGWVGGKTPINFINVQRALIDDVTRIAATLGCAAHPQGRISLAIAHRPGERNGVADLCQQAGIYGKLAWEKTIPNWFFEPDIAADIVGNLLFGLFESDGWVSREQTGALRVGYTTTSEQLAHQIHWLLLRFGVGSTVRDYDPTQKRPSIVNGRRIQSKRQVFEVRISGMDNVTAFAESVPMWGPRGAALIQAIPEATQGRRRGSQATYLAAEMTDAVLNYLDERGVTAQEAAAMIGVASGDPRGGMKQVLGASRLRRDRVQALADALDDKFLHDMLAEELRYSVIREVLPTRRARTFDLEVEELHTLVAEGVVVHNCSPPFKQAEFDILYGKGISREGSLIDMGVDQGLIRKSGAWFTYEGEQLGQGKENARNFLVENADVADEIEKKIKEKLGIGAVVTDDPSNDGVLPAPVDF
# Vero [2] = test: mammalian cell viability reduction – secondary assay, cytotoxicity control for West Nile virus antiviral project, dose response (AID 1650); assay type: functional; details: Chlorocebus sabaeus
# [3] = molecular target: T3, RNA-editing ligase 1, mitochondrial (Trypanosoma brucei brucei, UniProt P86926); test: inhibition of trypanosome RNA editing ligase – biochemical, fluorescence, Trypanosoma brucei, dose response (AID 1117295); assay type: functional
# T3 sequence (P86926 whole entry): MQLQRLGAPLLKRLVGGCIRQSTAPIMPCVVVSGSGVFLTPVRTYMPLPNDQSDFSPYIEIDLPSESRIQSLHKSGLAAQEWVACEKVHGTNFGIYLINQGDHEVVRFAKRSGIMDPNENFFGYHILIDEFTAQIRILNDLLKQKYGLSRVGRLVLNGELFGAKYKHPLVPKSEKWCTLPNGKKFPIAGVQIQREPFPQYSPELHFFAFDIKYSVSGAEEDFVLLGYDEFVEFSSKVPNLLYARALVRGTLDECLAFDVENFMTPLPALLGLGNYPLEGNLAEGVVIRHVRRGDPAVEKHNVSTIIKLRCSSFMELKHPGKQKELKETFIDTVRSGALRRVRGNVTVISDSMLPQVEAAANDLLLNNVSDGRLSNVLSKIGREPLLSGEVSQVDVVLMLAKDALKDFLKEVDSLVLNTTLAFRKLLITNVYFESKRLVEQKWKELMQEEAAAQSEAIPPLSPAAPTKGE
# [4] = HIV-1 Vif–A3G interaction blockers – biochemical, TR-FRET, GST-Vif 1-94, biotin-A3G peptide, dose response retest, primary screen (AID 1117319); assay type: functional;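 further: TR-FRET signal of purified GST-Vif binding a biotinylated A3G peptide; inhibitors lower the FRET signal by blocking Vif and A3G binding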
# [5] = molecular target: Protein-tyrosine kinase 2-beta (Homo sapiens, UniProt Q14289);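 further: potency of inhibitors of PYK2 kinase phosphorylation of poly-GT substrate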
# Cytochrome P450 1A2 = molecular target: T4, Cytochrome P450 1A2 (Homo sapiens, UniProt P05177);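 further: PubChem cytochrome P450 panel assay, CYP1A2 panel member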
# T4 sequence (P05177 whole entry): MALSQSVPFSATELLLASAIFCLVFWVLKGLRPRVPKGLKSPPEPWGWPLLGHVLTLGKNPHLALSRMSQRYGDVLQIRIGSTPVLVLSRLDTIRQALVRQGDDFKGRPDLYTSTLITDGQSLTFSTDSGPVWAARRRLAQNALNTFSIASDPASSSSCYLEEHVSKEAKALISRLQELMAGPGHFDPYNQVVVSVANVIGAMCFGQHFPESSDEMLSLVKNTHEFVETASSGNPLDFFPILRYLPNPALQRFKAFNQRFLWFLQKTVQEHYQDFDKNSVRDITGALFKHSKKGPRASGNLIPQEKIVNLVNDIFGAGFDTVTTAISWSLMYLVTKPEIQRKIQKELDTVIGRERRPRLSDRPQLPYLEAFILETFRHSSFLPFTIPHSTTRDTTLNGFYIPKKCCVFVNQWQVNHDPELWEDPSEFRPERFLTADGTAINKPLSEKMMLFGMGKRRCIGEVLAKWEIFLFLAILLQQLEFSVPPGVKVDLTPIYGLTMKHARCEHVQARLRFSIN
# Cytochrome P450 3A4 = Cytochrome P450 3A4 (Homo sapiens, UniProt P08684);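 further: CYP3A4 tested as one member of a cytochrome P450 panel screen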
# Cytochrome P450 2C19 = Cytochrome P450 2C19 (Homo sapiens, UniProt P33261); test: Cytochrome panel assay with activity outcomes. Panel member name: p450-cyp2c19 Compounds with AC50 equal or less than 10 uM are considered active; assay type: functional; details: read-out: AC50
# [6] = Luminescence Cell-Based Dose Retest to Confirm Inhibitors of Cancer Stem Cells. [Related pubchem assays (depositor defined):AID2717, AID2721]; assay type: functional; details: Homo sapiens
# BJ [7] = test: BJ-TERT fibroblast viability loss – cell-based, RAS-independent, luminescence, dose response (AID 1933); assay type: functional; details: Homo sapiens
# Paired box protein Pax-8 = Paired box protein Pax-8 (Homo sapiens, UniProt Q06710); test: PAX8 transcriptional activity inhibition in RMG-I – RMG-I cells, luciferase, cherry-pick, dose response (AID 687027); assay type: functional, cell-based;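 further: luciferase reporter driven by Pax8 target thyroperoxidase promoter measured by SteadyGlo luminescence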
# Vero [8] = test: cells; assay type: functional; details: Chlorocebus sabaeus
# [9] = Luminescence-based counterscreen assay for KLF5 inhibitors: dose response cell-based high throughput screening assay to identify cytotoxic compounds using the IEC-6 intestinal epithelial cell line. [Related pubchem assays: 1700 (Primary screen.), 1834 (Confirmation screen.), 1858 (Summary AID.), 1905 (Counterscreen.)]; assay type: functional
# BJ [10] = test: growth inhibition of engineered Ras-driven BJ cells – cell-based, alamar blue fluorescence, cherrypicked samples, dose response (AID 2631); assay type: functional; details: Homo sapiens;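 further: confirmatory dose-response assay in RAS-dependent BJ fibroblasts engineered with TERT, LT and ST, with cytotoxicity read by fluorescence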
# [11] = DRD fibroblast viability loss – cell-based, non-viral oncogenic, luminescence, dose response (AID 1934); assay type: functional; details: Homo sapiens
# [12] = general cell-killing toxicity readout – plate reader, dry powder samples, cytotoxicity control for PAX8 inhibitor project, dose response (AID 743021); assay type: functional, cell-based
# [13] = HEK-293T viability loss after treatment – luminescence, T-cell screen hits, cytotoxicity control for TCR NF-kB inhibitor project, dose response (AID 489026); assay type: functional, cell-based;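 further: cells exposed to compound about 14 hours before the viability readout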
# BJ [14] = test: cells; assay type: functional, cell-based; details: Homo sapiens
# BJ [15] = test: BJ-TERT-LT-ST fibroblast viability loss – cell-based, RAS-independent, luminescence, dose response (AID 1935); assay type: functional; details: Homo sapiens;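 further: BJ fibroblasts immortalized with TERT plus LT and ST oncogenes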
# [16] = molecular target: Glucose-6-phosphate 1-dehydrogenase (Homo sapiens, UniProt P11413); test: inhibition of Homo sapiens G6PD, dose series – biochemical, fluorescence, selectivity assay for P. falciparum G6PD inhibitor project, dose response (AID 504792); assay type: functional
# Caspase-9 = molecular target: T5, Caspase-9 (Homo sapiens, UniProt P55211); test: inhibitors of purified CASP9 protease – biochemical, fluorescence, plate reader, cherry-picked samples, selectivity assay for caspase-6 inhibitor project, dose response (AID 743293)
# T5 sequence (P55211 whole entry): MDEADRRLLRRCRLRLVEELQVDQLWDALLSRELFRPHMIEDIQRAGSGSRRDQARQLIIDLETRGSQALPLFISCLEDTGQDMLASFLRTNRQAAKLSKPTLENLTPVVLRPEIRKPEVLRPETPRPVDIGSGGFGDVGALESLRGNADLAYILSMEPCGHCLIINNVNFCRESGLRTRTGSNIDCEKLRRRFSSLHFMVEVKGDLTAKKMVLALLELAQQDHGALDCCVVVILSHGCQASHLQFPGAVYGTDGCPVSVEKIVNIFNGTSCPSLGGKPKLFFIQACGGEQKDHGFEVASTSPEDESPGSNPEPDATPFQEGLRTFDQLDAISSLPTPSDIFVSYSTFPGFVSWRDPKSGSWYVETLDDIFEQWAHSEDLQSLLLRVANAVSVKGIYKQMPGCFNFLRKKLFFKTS
# Caspase-7 = molecular target: T6, Caspase-7 (Homo sapiens, UniProt P55210); test: caspase-7 enzyme inhibition, selectivity check – biochemical, DEVD-R110 fluorescence, cherry-pick, selectivity assay for caspase-6 inhibitor project, dose response (AID 743295); assay type: functional
# T6 sequence (P55210 whole entry): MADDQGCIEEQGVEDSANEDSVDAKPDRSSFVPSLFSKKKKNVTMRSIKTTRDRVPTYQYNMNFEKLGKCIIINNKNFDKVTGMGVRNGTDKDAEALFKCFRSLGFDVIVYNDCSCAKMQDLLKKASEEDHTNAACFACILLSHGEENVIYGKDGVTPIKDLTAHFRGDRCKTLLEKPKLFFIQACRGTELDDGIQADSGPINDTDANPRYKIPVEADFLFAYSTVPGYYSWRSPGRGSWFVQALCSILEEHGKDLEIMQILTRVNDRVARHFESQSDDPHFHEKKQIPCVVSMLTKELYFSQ
# Large T antigen = Large T antigen (Simian virus 40, UniProt P03070); assay type: functional, Betapolyomavirus macacae;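 further: Confirmatory-stage PubChem screen for compounds that inhibit SV40 T antigen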
# Caspase-6 = molecular target: T7, Caspase-6 (Homo sapiens, UniProt P55212); test: inhibition of CASP6 peptide cleavage – biochemical, VEID-R110 fluorescence, cherry-pick, dose response (AID 720632)
# T7 sequence (P55212 whole entry): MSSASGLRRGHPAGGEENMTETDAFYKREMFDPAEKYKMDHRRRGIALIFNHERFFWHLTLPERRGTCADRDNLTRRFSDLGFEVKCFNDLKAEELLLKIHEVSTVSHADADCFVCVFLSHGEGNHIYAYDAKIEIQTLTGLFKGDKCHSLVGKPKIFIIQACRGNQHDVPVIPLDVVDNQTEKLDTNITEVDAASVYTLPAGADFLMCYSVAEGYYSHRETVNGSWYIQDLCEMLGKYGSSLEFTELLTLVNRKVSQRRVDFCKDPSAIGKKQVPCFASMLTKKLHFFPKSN
# Chain of Protein-tyrosine kinase 2-beta (Q14289 whole entry): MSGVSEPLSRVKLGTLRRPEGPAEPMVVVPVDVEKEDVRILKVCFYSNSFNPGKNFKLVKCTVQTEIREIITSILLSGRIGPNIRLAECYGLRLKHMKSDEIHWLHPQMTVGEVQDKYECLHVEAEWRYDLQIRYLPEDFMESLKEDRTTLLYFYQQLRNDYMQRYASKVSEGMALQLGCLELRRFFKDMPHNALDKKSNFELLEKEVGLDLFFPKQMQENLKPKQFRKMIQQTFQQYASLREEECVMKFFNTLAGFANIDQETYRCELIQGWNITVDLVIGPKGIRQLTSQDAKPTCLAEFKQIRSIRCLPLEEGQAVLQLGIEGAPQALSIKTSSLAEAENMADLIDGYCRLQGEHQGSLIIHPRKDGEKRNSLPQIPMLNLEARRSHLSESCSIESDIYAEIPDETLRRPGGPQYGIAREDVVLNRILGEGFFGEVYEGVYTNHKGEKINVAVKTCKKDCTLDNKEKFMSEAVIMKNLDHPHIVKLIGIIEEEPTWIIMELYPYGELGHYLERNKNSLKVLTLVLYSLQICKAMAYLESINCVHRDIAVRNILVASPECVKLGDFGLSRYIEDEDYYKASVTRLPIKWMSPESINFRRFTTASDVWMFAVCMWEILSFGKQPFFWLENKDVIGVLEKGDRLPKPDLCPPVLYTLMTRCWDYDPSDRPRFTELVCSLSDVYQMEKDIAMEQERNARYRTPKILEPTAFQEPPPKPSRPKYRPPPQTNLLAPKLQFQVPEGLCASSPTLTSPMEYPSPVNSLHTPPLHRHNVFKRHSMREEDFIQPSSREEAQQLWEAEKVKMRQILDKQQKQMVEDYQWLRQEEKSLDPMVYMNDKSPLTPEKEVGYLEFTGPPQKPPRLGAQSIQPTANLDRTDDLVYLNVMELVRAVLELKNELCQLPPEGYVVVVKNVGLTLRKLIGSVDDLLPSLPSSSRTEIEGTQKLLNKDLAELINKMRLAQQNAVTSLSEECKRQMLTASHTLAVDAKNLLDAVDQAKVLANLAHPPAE
# Chain of Glucose-6-phosphate 1-dehydrogenase (P11413 whole entry): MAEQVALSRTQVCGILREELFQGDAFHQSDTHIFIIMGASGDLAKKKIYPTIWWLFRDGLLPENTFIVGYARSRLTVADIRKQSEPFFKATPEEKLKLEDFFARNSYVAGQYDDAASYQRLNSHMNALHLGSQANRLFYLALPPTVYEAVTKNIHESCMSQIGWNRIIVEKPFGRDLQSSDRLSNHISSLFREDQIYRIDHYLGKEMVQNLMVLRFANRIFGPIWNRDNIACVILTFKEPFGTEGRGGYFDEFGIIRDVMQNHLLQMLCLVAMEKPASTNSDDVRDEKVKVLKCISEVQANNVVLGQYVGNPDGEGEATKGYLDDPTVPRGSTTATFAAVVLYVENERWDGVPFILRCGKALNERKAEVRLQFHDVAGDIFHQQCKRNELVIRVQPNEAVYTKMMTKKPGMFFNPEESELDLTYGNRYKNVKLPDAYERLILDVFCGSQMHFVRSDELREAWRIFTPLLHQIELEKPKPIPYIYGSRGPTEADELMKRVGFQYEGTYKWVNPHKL
# Chain of Large T antigen (P03070 whole entry): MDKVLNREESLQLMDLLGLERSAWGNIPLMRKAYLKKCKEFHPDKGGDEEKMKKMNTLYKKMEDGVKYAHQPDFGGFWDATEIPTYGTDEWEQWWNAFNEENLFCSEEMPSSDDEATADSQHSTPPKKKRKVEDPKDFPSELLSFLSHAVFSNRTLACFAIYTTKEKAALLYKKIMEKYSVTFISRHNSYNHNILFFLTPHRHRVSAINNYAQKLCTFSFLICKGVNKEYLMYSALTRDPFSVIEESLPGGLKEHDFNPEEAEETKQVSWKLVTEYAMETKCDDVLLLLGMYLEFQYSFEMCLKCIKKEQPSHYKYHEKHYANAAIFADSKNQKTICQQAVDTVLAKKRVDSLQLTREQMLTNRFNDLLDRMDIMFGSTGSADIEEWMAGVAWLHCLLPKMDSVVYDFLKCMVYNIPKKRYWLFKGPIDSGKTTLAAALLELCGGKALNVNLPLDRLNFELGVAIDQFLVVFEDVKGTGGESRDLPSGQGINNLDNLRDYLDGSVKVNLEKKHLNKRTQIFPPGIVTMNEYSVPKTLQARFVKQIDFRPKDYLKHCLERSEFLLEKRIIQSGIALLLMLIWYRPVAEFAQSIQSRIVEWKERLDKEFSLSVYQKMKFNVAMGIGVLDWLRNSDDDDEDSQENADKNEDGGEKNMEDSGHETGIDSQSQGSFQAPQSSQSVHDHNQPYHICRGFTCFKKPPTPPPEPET
# Chain of Cytochrome P450 3A4 (P08684 whole entry): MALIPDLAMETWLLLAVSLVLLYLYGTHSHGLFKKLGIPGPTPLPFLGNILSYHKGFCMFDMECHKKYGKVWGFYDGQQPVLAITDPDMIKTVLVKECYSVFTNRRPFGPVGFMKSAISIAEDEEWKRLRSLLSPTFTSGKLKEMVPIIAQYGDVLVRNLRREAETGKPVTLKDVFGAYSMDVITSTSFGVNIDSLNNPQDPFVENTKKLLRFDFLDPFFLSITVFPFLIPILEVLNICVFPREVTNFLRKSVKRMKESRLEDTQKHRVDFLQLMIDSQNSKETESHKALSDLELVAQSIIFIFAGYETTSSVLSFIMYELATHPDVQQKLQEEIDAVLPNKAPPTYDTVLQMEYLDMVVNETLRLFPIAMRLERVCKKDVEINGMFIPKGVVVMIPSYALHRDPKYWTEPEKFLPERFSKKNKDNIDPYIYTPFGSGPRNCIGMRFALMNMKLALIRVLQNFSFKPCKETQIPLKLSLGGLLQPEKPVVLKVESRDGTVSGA
# Chain of Paired box protein Pax-8 (Q06710 whole entry): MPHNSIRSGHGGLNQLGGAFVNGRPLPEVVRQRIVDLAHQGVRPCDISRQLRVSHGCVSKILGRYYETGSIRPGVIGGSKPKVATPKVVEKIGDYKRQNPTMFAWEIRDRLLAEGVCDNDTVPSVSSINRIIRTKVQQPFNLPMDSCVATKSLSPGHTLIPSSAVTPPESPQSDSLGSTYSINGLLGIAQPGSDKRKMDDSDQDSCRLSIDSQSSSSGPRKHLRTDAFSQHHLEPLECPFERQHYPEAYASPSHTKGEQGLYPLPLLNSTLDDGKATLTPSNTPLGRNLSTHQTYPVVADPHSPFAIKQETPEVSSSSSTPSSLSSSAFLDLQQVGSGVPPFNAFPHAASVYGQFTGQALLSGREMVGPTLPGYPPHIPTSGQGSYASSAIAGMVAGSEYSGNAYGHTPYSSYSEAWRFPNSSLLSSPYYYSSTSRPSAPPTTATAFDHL
# Chain of Cytochrome P450 2C19 (P33261 whole entry): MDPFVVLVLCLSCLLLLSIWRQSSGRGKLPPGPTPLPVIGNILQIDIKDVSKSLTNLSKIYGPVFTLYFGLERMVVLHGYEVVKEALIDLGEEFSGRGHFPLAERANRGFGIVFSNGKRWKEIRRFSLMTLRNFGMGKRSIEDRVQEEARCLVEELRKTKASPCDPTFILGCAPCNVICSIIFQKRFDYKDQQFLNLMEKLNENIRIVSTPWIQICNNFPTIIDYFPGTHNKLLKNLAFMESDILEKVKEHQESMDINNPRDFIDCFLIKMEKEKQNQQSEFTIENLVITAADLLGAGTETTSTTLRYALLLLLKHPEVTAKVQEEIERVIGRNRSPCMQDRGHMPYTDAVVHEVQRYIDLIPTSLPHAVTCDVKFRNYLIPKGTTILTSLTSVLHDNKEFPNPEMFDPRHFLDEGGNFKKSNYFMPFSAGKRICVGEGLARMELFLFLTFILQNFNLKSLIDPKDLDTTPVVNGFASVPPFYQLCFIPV
structure (smiles),measurement,setting,value
C[C@@H]1CC=C[C@H]2[C@H]1C(=O)N(Cc1ccccc1)[C@H]2c1ccc(F)c(Br)c1,AC50,[1],5.04 µM (active)
same,EC50,Protein RecA,23 µM (active)
same,CC50,Vero [2],24.1 µM (active)
CCC(=O)c1ccccc1OCCCN1CCC(Cc2ccccc2)CC1,IC50,[3],> 96.6 µM (inactive)
O=C(CSc1nnc(-c2cccnc2)n1Cc1ccco1)c1ccc(Br)cc1,IC50,[4],> 100 µM (active)
CC(C)(C)C(=O)NC(=C(Cl)Cl)P(=O)(O)O,IC50,[5],9.26 µM (active)
same,AC50,Cytochrome P450 1A2,0.1 µM (inconclusive)
COC(=O)C(Cc1c[nH]c2ccccc12)NC(=O)C(C)C (stereo unspecified),AC50,Cytochrome P450 3A4,31.6 µM (inconclusive)
same,IC50,[4],> 100 µM (active)
same,AC50,Cytochrome P450 2C19,22.4 µM (inconclusive)
COc1ccc2nc(C)cc(SCC(=O)N/N=C/c3cccc4ccccc34)c2c1,AC50,[6],1.11 µM (active)
same,IC50,[5],2.57 µM (active)
C[C@]12CCC3C(CCC4=CC(O)CC[C@@]43/C=N/O)C1(O)CCC2C1=CC(=O)OC1 (stereo partly specified),EC50,BJ [7],1.9 µM (active)
same,AC50,Paired box protein Pax-8,2.22 µM (active)
same,CC50,Vero [8],1.34 µM (active)
same,IC50,[9],> 39.8 µM (not active)
same,EC50,BJ [10],0.391 µM (active)
same,EC50,[11],2.33 µM (active)
same,AC50,[12],50.2 µM (active)
same,IC50,[13],> 80 µM (inactive)
same,EC50,BJ [14],2.56 µM (active)
same,CC50,Vero [2],0.79 µM (active)
same,EC50,BJ [15],2.36 µM (inconclusive)
Nc1c(O)cccc1C(=O)O,AC50,[1],> 380 µM (inactive)
same,EC50,Protein RecA,5.43 µM (active)
same,IC50,[16],24 µM (inactive)
same,AC50,Caspase-9,> 70 µM (inactive)
same,AC50,Caspase-7,6.14 µM (active)
same,IC50,Large T antigen,20.1 µM (active)
same,AC50,Caspase-6,1.59 µM (active)
O=C1CCCCC1Oc1ccc2ccc(=O)oc2c1 (stereo unspecified),IC50,[4],> 100 µM (active)
